These are literature values, as cited in patent US20240074994A1, “COMPOSITION OF CHLORHEXIDINE” (priority 2022, published 2024).

Series [1] deals with HSV-1. As to conditions: Vero cell monolayers.
Series [2] has as its system HSV-1. The conditions noted are these: 0.2% applied topically onto HSV-1 infected forehead skin of mice.

Take Chlorhexidine: in the series with HSV-1 [1], the “cytolytic activity of HSV-1” value is on record as “moderately, but significantly, inhibited” and the “replication of HSV-1” value was “moderately, but significantly, inhibited”. In the series on HSV-1 [2], the “development of viral lesions” value was “moderately reduced”; the “viral titers in the skin and trigeminal ganglia” value was “moderately reduced”.
